One assay deals with T1, BxACE-3 (Bursaphelenchus xylophilus, UniProt D2JYX1).
T1 construct: gene AChE3; recombinant, baculovirus system
Nature of the assay: colorimetric acetylthiocholine/DTNB assay. It is filed as biochemical. To be noted: read-out: % inhibition at 2 mM.

For another assay, the target named is T2, BxACE-1 (Bursaphelenchus xylophilus, UniProt D2JYW9).
T2 construct: gene AChE1; recombinant, baculovirus system
Briefly: colorimetric acetylthiocholine/DTNB assay. To be noted: read-out: % inhibition at 2 mM. It is filed as biochemical.

In general, inhibition refers to the percentage by which the read-out fell short of the control.

T1 sequence (D2JYX1 entry or part of it): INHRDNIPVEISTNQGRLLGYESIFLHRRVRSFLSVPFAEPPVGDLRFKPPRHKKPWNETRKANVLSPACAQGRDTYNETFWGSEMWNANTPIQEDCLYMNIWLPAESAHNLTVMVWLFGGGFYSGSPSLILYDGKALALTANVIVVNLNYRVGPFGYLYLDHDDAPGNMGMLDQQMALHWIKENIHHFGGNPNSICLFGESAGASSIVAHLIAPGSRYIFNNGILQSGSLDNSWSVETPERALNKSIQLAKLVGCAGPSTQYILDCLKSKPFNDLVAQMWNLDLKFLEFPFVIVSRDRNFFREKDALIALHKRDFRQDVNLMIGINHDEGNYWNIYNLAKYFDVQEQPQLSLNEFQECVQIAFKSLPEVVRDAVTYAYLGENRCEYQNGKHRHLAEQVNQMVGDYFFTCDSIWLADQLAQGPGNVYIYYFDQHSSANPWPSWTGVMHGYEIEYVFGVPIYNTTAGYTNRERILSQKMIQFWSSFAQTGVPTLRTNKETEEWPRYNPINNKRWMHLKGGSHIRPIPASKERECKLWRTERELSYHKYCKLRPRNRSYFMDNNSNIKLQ
T2 sequence (D2JYW9 entry or part of it): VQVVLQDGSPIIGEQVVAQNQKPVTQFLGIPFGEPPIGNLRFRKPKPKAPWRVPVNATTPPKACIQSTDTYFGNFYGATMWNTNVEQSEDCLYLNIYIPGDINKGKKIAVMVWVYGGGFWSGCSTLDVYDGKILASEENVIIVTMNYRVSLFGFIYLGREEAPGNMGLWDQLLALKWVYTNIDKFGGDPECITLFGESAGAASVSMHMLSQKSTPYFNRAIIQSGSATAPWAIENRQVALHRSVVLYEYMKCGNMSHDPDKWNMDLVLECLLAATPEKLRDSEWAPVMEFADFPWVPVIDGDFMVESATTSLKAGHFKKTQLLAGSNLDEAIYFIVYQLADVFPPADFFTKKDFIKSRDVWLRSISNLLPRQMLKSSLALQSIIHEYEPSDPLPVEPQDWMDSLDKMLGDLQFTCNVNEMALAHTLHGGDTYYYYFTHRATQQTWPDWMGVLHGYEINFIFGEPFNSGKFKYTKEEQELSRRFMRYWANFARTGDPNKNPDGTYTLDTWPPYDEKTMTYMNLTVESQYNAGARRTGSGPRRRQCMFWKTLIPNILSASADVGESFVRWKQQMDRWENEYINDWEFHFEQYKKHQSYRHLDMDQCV

On to `C=C(C)C1CC=C(C)CC1` (stereo not drawn) [limonene], for which the inhibition at 2000 µM at BxACE-3 was ~10%.

For the molecule `CC1=CCC2CC1C2(C)C` (stereo not drawn) [α-pinene], the inhibition at 2000 µM is ~25% at BxACE-1 and ~10% at BxACE-3.

The record behind these values is PMC3083410, “A Soluble Acetylcholinesterase Provides Chemical Defense against Xenobiotics in the Pinewood Nematode” (PLoS ONE, 2011).
